Data published in patent USRE46630E1, “Substituted 4-pyridones and their use as inhibitors of neutrophil elastase activity” (Boehringer Ingelheim International GmbH, priority 2012, dated 2017).

What follows are molecules tested against T1, Human neutrophil elastase (Homo sapiens, UniProt P08246) (assay: Human Neutrophil Elastase Assay). Conditions: Neutrophil Elastase assay; substrate MeOSuc-Ala-Ala-Pro-Val-AMC 250 μM; 15 min preincubation, 60 min incubation at room temperature; pH 7.5.
T1 construct: purchased Calbiochem 324681
T1 sequence (P08246 30-267): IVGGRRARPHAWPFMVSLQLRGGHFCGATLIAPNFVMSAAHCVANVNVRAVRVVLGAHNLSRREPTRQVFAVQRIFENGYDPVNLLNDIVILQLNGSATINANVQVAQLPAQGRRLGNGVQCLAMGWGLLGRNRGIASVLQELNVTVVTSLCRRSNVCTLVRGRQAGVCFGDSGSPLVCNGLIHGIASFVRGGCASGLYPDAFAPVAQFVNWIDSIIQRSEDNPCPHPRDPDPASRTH
Format: biochemical
Outline: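 Run in 100 mM Tris, 500 mM NaCl, pH 7.5 with 0.01% BSA, with compounds prediluted in DMSO then buffer (5% DMSO final). Fluorescence was read at 380 nm excitation/460 nm emission after enzyme inactivation. Values were normalised to inactivated-enzyme (0%) and uninhibited-enzyme (100%) controls.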

Structure (SMILES)	IC50 [nM]
Cc1c(-c2ccnc(C(F)(F)F)c2)c(=O)c(C(=O)NC2CCOCC2)cn1C(C)c1ccc(C#N)cc1 (stereo not shown) [Example 9.25]	11.4
Cc1c(-c2cccc(C(F)(F)F)c2)c(=O)c(C(=O)N[C@@H]2CCNC2=O)cn1Cc1ccc(C#N)cc1 [Example 1.59]	10.5
Cc1c(-c2cccc(C(F)(F)F)c2)c(=O)c(C(=O)NCc2ccc(S(C)(=O)=O)cn2)cn1C(C)c1ccc(C#N)cc1 (stereo not shown) [Example 4.10]	< 1
Cc1c(-c2cncc(Cl)c2)c(=O)c(C(=O)NCc2ccc(S(C)(=O)=O)cc2)cn1Cc1ccc(C#N)cc1 [Example 6.9]	3.8
Cc1c(-c2cccc(C(F)(F)F)c2)c(=O)c(C(=O)NCc2cccnc2)cn1Cc1ccc(C#N)cc1 [Example 1.46]	5.9
Cc1c(-c2ccnc(C(F)(F)F)c2)c(=O)c(C(=O)NCCCS(C)(=O)=O)cn1C(C)c1ccc(C#N)cc1 (stereo not shown) [Example 9.6]	3.2
Cc1c(-c2ccnc(C(F)(F)F)c2)c(=O)c(C(=O)NC2CC3CCC2O3)cn1C(C)c1ccc(C#N)cc1 (stereo not shown) [Example 9.39]	58.3
Cc1c(-c2cccc(C(F)(F)F)c2)c(=O)c(C(=O)NC2CCOCC2)cn1C(C)c1ccc(C#N)cn1 (stereo not shown) [Example 47.10]	19.2
Cc1c(-c2cccc(C(F)(F)F)c2)c(=O)c(C(=O)NCC#N)cn1C(C)c1ccc(C#N)cc1 (stereo not shown) [Example 7.18]	< 1
Cc1c(-c2cccc(C(F)(F)F)c2)c(=O)c(C(=O)NCCCN(C)C)cn1C(C)c1ccc(C#N)cc1 (stereo not shown) [Example 7.1]	4.1
Cc1c(-c2cccc(C(F)F)c2)c(=O)c(C(=O)NCc2cccnc2)cn1C(C)c1ccc(C#N)cc1 (stereo not shown) [Example 8.18]	2.4
CCS(=O)(=O)c1cc(C#N)ccc1Cn1cc(C(=O)NC)c(=O)c(-c2cccc(C(F)(F)F)c2)c1C [Example 26]	10.8
Cc1c(-c2cccc(C(F)(F)F)c2)c(=O)c(C(=O)NC2CCNC2=O)cn1Cc1ccc(C#N)cc1 (stereo not shown) [Example 1.39]	6.2
Cc1c(-c2cccc(C(F)(F)F)c2)c(=O)c(C(=O)NCc2ccc(S(C)(=O)=O)cc2)cn1Cc1ccccc1 [Example 2.1, 1-Benzyl-6-methyl-4-oxo-5-(3-trifluoromethyl-phenyl)-1,4-dihydro-pyridine-3-carboxylic acid 4-methanesulfonyl-benzylamide]	55.3
CCCNC(=O)c1cn(Cc2ccc(C#N)cc2)c(C)c(-c2cccc(C(F)(F)F)c2)c1=O [Example 1.18]	23.8
COCCNC(=O)c1cn(C(C)c2ccc(C#N)cc2)c(C)c(-c2ccnc(C(F)(F)F)c2)c1=O (stereo not shown) [Example 9.57]	5.2
Cc1nc(CNC(=O)c2cn(Cc3ccc(C#N)cc3)c(C)c(-c3cccc(C(F)(F)F)c3)c2=O)no1 [Example 1.60]	13.3
Cc1c(-c2cccc(C(F)(F)F)c2)c(=O)c(C(=O)NCCN2CCCC2=O)cn1Cc1ccc(C#N)cc1 [Example 1.28]	21.8
Cc1c(-c2cccc(C(F)F)c2)c(=O)c(C(=O)NCc2ccnn2C)cn1C(C)c1ccc(C#N)cc1 (stereo not shown) [Example 8.16]	2.4
Cc1nnc(CNC(=O)c2cn(Cc3ccc(C#N)cc3)c(C)c(-c3cccc(C(F)(F)F)c3)c2=O)o1 [Example 1.15]	7.9
Cc1noc(CNC(=O)c2cn(C(C)c3ccc(C#N)cc3)c(C)c(-c3cccc(C(F)(F)F)c3)c2=O)n1 (stereo not shown) [Example 7.2]	2.5
Cc1c(-c2cccc(C(F)(F)F)c2)c(=O)c(C(=O)NCc2ccc(S(C)(=O)=O)cn2)cn1Cc1ccc(C#N)cc1F [Example 4.9]	< 1
Cc1c(-c2cccc(C(F)(F)F)c2)c(=O)c(C(=O)NCc2ccnnc2)cn1Cc1ccc(C#N)cc1 [Example 1.14]	1.8
Cc1c(-c2ccnc(C(F)(F)F)c2)c(=O)c(C(=O)NCC2(C)COC2)cn1C(C)c1ccc(C#N)cc1 (stereo not shown) [Example 9.38]	33.3
Cc1c(-c2cccc(C(F)(F)F)c2)c(=O)c(C(=O)NC2(C#N)CC2)cn1C(C)c1ccc(C#N)cn1 (stereo not shown) [Example 47.18]	6.4
Cc1c(-c2cccc(C(F)(F)F)c2)c(=O)c(C(=O)NCC2(O)CCN(C)CC2)cn1Cc1ccc(C#N)cc1 [Example 1.8]	83
Cc1c(-c2cccc(C(F)(F)F)c2)c(=O)c(C(=O)NCC(F)F)cn1C(C)c1ccc(C#N)cc1 (stereo not shown) [Example 7.20]	3.6
CCNC(=O)c1cn(C(C)c2ccc(C#N)cn2)c(C)c(-c2cccc(C(F)F)c2)c1=O (stereo not shown) [Example 18, 1-[1-(5-Cyano-pyridin-2-yl)-ethyl]-5-(3-difluoromethyl-phenyl)-6-methyl-4-oxo-1,4-dihydro-pyridine-3-carboxylic acid ethylamide]	5.4

Structure (SMILES)	IC50 [nM]
Cc1c(-c2cccc(C(F)F)c2)c(=O)c(C(=O)NCCn2cccn2)cn1C(C)c1ccc(C#N)cc1 (stereo not shown) [Example 8.15]	4.4
Cc1c(-c2cccc(C(F)(F)F)c2)c(=O)c(C(=O)NCC2CC2)cn1C(C)c1ccc(C#N)cn1 (stereo not shown) [Example 47.5]	16.7
Cc1c(-c2cccc(F)c2)c(=O)c(C(=O)NCc2ccc(S(C)(=O)=O)cc2)cn1Cc1ccc(C#N)cc1 [Example 6.5]	9.6
CNC(=O)c1cn(Cc2ccc(C#N)c(F)c2)c(C)c(-c2ccnc(C(F)(F)F)c2)c1=O [Example 43, 1-(4-Cyano-3-fluoro-benzyl)-2-methyl-4-oxo-2′-trifluoromethyl-1,4-dihydro-[3,4′]bipyridinyl-5-carboxylic acid methylamide]	48.4
Cc1c(-c2cccc(C(F)(F)F)c2)c(=O)c(C(=O)NCc2ccc(S(C)(=O)=O)cc2)cn1Cc1ccc(Cl)cc1 [Example 2.7]	6.9
Cc1c(-c2ccnc(C(F)(F)F)c2)c(=O)c(C(=O)NC(C)(C)C#N)cn1C(C)c1ccc(C#N)cc1 (stereo not shown) [Example 9.46]	94
Cc1c(-c2ccnc(C(F)(F)F)c2)c(=O)c(C(=O)NC2CCNC2=O)cn1C(C)c1ccc(C#N)cc1 (stereo not shown) [Example 9.4]	4.1
Cc1c(-c2cccc(C(F)(F)F)c2)c(=O)c(C(=O)NCCCCO)cn1Cc1ccc(C#N)cc1 [Example 1.20]	10.6
Cc1c(-c2cccc(C(F)(F)F)c2)c(=O)c(C(=O)NCc2ccc(S(C)(=O)=O)c[n+]2[O-])cn1Cc1ccc(C#N)cc1 [Example 14, Pyridin-N-oxide of example 4.1]	< 1
CNC(=O)c1cn(C(C)c2ccc(C#N)cc2)c(C)c(-c2cccc(CF)c2)c1=O (single isomer, unassigned) [Example 31B]	4.2
Cc1c(-c2cccc(C(F)(F)F)c2)c(=O)c(C(=O)NCCC(C)O)cn1C(C)c1ccc(C#N)cn1 (stereo not shown) [Example 47.4]	12.2
Cc1c(-c2ccnc(C(F)(F)F)c2)c(=O)c(C(=O)NC2CNC(=O)C2)cn1C(C)c1ccc(C#N)cc1 (stereo not shown) [Example 9.8]	4.2
Cc1c(-c2ccnc(C(F)(F)F)c2)c(=O)c(C(=O)NCC2COC2)cn1C(C)c1ccc(C#N)cc1 (stereo not shown) [Example 9.15]	5.7
Cc1c(-c2cccc(C(F)(F)F)c2)c(=O)c(C(=O)N[C@H]2CCC(=O)NC2)cn1Cc1ccc(C#N)cc1 [Example 1.53]	9
Cc1c(-c2ccnc(C(F)(F)F)c2)c(=O)c(C(=O)NCCC#N)cn1C(C)c1ccc(C#N)cc1 (stereo not shown) [Example 9.54]	4.1
Cc1c(-c2cccc(C(F)(F)F)c2)c(=O)c(C(=O)N[C@H]2CCC(=O)N(C)C2)cn1Cc1ccc(C#N)cc1 [Example 1.36]	47.1
Cc1c(-c2cccc(C(F)(F)F)c2)c(=O)c(C(=O)NCc2ccc(S(C)(=O)=O)cc2)cn1Cc1cccc(C#N)c1 [Example 2.10]	83.8
CNC(=O)c1cn(Cc2ccc(C#N)cn2)c(C)c(-c2cccc(C(F)F)c2)c1=O [Example 34]	31.2
Cc1c(-c2cccc(C(F)(F)F)c2)c(=O)c(C(=O)NCC#N)cn1Cc1ccc(C#N)cc1 [Example 46, 1-(4-Cyano-benzyl)-6-methyl-4-oxo-5-(3-trifluoromethyl-phenyl)-1,4-dihydro-pyridine-3-carboxylic acid cyanomethyl-amide]	2.3
Cc1c(-c2ccnc(C(F)(F)F)c2)c(=O)c(C(=O)NCC2CCCCO2)cn1C(C)c1ccc(C#N)cc1 (stereo not shown) [Example 9.37]	32.9
Cc1c(-c2ccnc(C(F)(F)F)c2)c(=O)c(C(=O)NCCN(C)C)cn1C(C)c1ccc(C#N)cc1 (stereo not shown) [Example 9.10]	12.4
Cc1c(-c2ccnc(C(F)(F)F)c2)c(=O)c(C(=O)NCC2CC(O)C2)cn1C(C)c1ccc(C#N)cc1 (stereo not shown) [Example 9.47]	14.9
CNC(=O)c1cn(C(C)c2ccc(C#N)cc2)c(C)c(-c2ccnc(C(F)(F)F)c2)c1=O (single isomer, unassigned) [Example 9A]	3.7
CNC(=O)c1cn(C2CCc3cc(C#N)ccc32)c(C)c(-c2cccc(C(F)(F)F)c2)c1=O (stereo not shown) [Example 37, 1-(5-Cyano-indan-1-yl)-6-methyl-4-oxo-5-(3-trifluoromethyl-phenyl)-1,4-dihydro-pyridine-3-carboxylic acid methylamide]	13.7
Cc1c(-c2cccc(C(F)(F)F)c2)c(=O)c(C(=O)NC2CCOC2)cn1Cc1ccc(C#N)cc1 (stereo not shown) [Example 1.37]	95.7
Cc1c(-c2cccc(C(F)(F)F)c2)c(=O)c(C(=O)NCC(=O)N(C)C)cn1Cc1ccc(C#N)cc1 [Example 1.65]	38.5
Cc1c(-c2cccc(C(F)F)c2)c(=O)c(C(=O)NCc2ccc(S(C)(=O)=O)cc2)cn1Cc1ccc(C#N)c(F)c1 [Example 39, 1-(4-Cyano-3-fluoro-benzyl)-5-(3-difluoromethyl-phenyl)-6-methyl-4-oxo-1,4-dihydro-pyridine-3-carboxylic acid 4-methanesulfonyl-benzylamide]	< 1
